Experimental data from US8063071B2 (GlaxoSmithKline, LLC, priority 2007, dated 2011).
Structures can show the parent of a compound that is named as a salt.

Columns and labels:
[1] = test system: human monocyte stimulated cytokine production (TNF-α); assay: Monocyte assay (LPS-stimulated TNF-α production); type: cell-based; conditions: for IC50: 24 h, 200 ng/mL LPS, TNF-α by ELISA; for inhibition at 0.3 µM: read-out: inhibition at 300 nM in the monocyte assay
Procedure, shortened: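 Human CD14+ monocytes were purified from blood and plated at 1×10^6 cells/mL in RPMI 1640 with 10% FBS. Compound was added 30 min before stimulation with 200 ng/mL LPS (0.1% DMSO final), followed by 24 hrs at 37 C. Supernatant TNF-α was measured by ELISA, and viability by trypan blue exclusion.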

[2] = target: T1, Recombinant human IKKβ (residues 1-737) (Homo sapiens, UniProt O14920); assay: IKK2 assay (TR-FRET); type: biochemical; conditions: ATP 1 μM final, read-out: pIC50 against IKK2 (converted)
T1 construct: Recombinant human IKKβ (residues 1-737); GST (C); made in house
T1 sequence (O14920 1-737): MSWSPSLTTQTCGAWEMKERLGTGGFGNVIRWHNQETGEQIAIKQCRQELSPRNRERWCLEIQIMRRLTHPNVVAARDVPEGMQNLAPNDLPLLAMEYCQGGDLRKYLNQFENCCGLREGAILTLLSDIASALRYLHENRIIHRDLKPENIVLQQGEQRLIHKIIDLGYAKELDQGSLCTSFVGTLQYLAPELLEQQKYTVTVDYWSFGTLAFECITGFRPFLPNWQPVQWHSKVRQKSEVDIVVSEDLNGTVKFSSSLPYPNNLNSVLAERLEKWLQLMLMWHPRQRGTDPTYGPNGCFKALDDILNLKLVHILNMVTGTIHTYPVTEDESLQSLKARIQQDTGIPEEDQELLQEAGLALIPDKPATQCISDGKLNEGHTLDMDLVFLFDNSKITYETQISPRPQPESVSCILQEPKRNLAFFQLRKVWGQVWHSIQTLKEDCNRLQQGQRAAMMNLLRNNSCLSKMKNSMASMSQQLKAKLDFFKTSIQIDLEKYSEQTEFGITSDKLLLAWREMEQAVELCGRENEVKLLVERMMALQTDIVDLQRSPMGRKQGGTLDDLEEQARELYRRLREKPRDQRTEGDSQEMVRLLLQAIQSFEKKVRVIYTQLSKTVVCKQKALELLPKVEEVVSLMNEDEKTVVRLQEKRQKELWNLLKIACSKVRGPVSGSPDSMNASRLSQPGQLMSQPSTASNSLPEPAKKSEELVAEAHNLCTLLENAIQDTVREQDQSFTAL
Procedure, shortened: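 Baculovirus-expressed C-terminal GST-tagged IKKβ (0.5-5 nM final) in HEPES pH 7.4, MgCl2, CHAPS, DTT, BSA with 1.7% DMSO; 25 nM GST-IB substrate and 1 μM ATP, 15 min at room temperature. EDTA stop; phospho-Ser32/36 detected by Eu-antibody/APC-anti-GST TR-FRET, 665/620 nm ratio.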

| SMILES | IC50 [1] | IC50 [2] | inhibition at 0.3 µM [1] |
| --- | --- | --- | --- |
| CCNCc1cc(-c2cc(C(N)=O)c3[nH]cc(C4CCN(S(=O)(=O)CC)CC4)c3c2)ccc1F [Example 271, 5-{3-[(ethylamino)methyl]-4-fluorophenyl}-3-[1-(ethylsulfonyl)-4-piperidinyl]-1H-indole-7-carboxamide trifluoroacetate] | ≤ 1.5 µM | ≤ 10 µM | – |
| CCS(=O)(=O)N1CCC(c2c[nH]c3c(C(N)=O)cc(-c4ccc(N5CCCC5)nc4)cc23)CC1 [Example 224, 3-[1-(ethylsulfonyl)-4-piperidinyl]-5-[6-(1-pyrrolidinyl)-3-pyridinyl]-1H-indole-7-carboxamide trifluoroacetate] | > 1 µM | ≤ 10 µM | – |
| CCS(=O)(=O)N1CCC(c2c[nH]c3c(C(N)=O)cc(-c4csc(CN5CCCC5c5cccnc5)c4)cc23)CC1 (stereo not shown) [Example 90, 3-[1-(ethylsulfonyl)-4-piperidinyl]-5-(5-{[2-(3-pyridinyl)-1-pyrrolidinyl]methyl}-3-thienyl)-1H-indole-7-carboxamide] | – | ≤ 10 µM | 0 to 60% |
| CCS(=O)(=O)N1CCC(c2c[nH]c3c(C(N)=O)cc(-c4cc(F)cc(CNC[C@@H]5CCCO5)c4)cc23)CC1 [Example 312, 3-[1-(ethylsulfonyl)-4-piperidinyl]-5-[3-fluoro-5-({[(2S)-tetrahydro-2-furanylmethyl]amino}methyl)phenyl]-1H-indole-7-carboxamide trifluoroacetate] | ≤ 1.5 µM | ≤ 10 µM | – |
| CCS(=O)(=O)N1CCC(c2c[nH]c3c(C(N)=O)cc(-c4csc(CN5CC[C@H](N(C)C)C5)c4)cc23)CC1 [Example 49, 5-(5-{[(3S)-3-(dimethylamino)-1-pyrrolidinyl]methyl}-3-thienyl)-3-[1-(ethylsulfonyl)-4-piperidinyl]-1H-indole-7-carboxamide] | – | ≤ 10 µM | 0 to 60% |
| CCN1Cc2ccc(-c3cc(C(N)=O)c4[nH]cc(C5CCN(S(=O)(=O)CC)CC5)c4c3)cc2C1 [Example 419, 5-(2-ethyl-2,3-dihydro-1H-isoindol-5-yl)-3-[1-(ethylsulfonyl)-4-piperidinyl]-1H-indole-7-carboxamide] | ≤ 1.5 µM | ≤ 10 µM | – |
| CCS(=O)(=O)N1CCC(c2c[nH]c3c(C(N)=O)cc(-c4cccc(C5CCCN5C)c4)cc23)CC1 (stereo not shown) [Example 344, 3-[1-(ethylsulfonyl)-4-piperidinyl]-5-[3-(1-methyl-2-pyrrolidinyl)phenyl]-1H-indole-7-carboxamide trifluoroacetate] | ≤ 1.5 µM | ≤ 10 µM | – |
| CCS(=O)(=O)N1CCC(c2c[nH]c3c(C(N)=O)cc(-c4cccc(CNS(=O)(=O)c5ccc(F)cc5)c4)cc23)CC1 [Example 380, 3-[1-(ethylsulfonyl)-4-piperidinyl]-5-[3-({[(4-fluorophenyl)sulfonyl]amino}methyl)phenyl]-1H-indole-7-carboxamide] | ≤ 1.5 µM | ≤ 10 µM | – |
| CCS(=O)(=O)N1CCC(c2c[nH]c3c(C(N)=O)cc(-c4cc(CNC)cs4)cc23)CC1 [Example 208, 3-[1-(ethylsulfonyl)-4-piperidinyl]-5-{4-[(methylamino)methyl]-2-thienyl}-1H-indole-7-carboxamide trifluoroacetate] | ≤ 1.5 µM | ≤ 10 µM | – |
| CCS(=O)(=O)N1CCC(c2c[nH]c3c(C(N)=O)cc(-c4ccc(CN5CCCC5)s4)cc23)CC1 [Example 239, 3-[1-(ethylsulfonyl)-4-piperidinyl]-5-[5-(1-pyrrolidinylmethyl)-2-thienyl]-1H-indole-7-carboxamide trifluoroacetate] | ≤ 1.5 µM | ≤ 10 µM | – |
| CCS(=O)(=O)N1CCC(c2c[nH]c3c(C(N)=O)cc(-c4cccc(CNC(=O)C5CCN(C(C)=O)CC5)c4)cc23)CC1 [Example 364, 5-[3-({[(1-acetyl-4-piperidinyl)carbonyl]amino}methyl)phenyl]-3-[1-(ethylsulfonyl)-4-piperidinyl]-1H-indole-7-carboxamide] | ≤ 1.5 µM | ≤ 10 µM | – |
| CCN(C)Cc1nc(-c2cc(C(N)=O)c3[nH]cc(C4CCN(S(=O)(=O)CC)CC4)c3c2)cs1 [Example 356, 5-(2-{[ethyl(methyl)amino]methyl}-1,3-thiazol-4-yl)-3-[1-(ethylsulfonyl)-4-piperidinyl]-1H-indole-7-carboxamide trifluoroacetate] | ≤ 1.5 µM | ≤ 10 µM | – |
| CC[C@H](C)CNCc1cc(F)cc(-c2cc(C(N)=O)c3[nH]cc(C4CCN(S(=O)(=O)CC)CC4)c3c2)c1 [Example 318, 3-[1-(ethylsulfonyl)-4-piperidinyl]-5-[3-fluoro-5-({[(2S)-2-methylbutyl]amino}methyl)phenyl]-1H-indole-7-carboxamide trifluoroacetate] | ≤ 1.5 µM | ≤ 10 µM | – |
| CCS(=O)(=O)N1CCC(c2c[nH]c3c(C(N)=O)cc(-c4cccc(C5CNCCN5)c4)cc23)CC1 (stereo not shown) [Example 300, 3-[1-(ethylsulfonyl)-4-piperidinyl]-5-[3-(2-piperazinyl)phenyl]-1H-indole-7-carboxamide trifluoroacetate] | > 1 µM | ≤ 10 µM | – |
| CCS(=O)(=O)N1CCC(c2c[nH]c3c(C(N)=O)cc(-c4csc(CN(C)CC(N)=O)c4)cc23)CC1 [Example 44, 5-(5-{[(2-amino-2-oxoethyl)(methyl)amino]methyl}-3-thienyl)-3-[1-(ethylsulfonyl)-4-piperidinyl]-1H-indole-7-carboxamide trifluoroacetate] | ≤ 1.5 µM | ≤ 10 µM | – |
| CCS(=O)(=O)N1CCC(c2c[nH]c3c(C(N)=O)cc(-c4cc(CNCCC#N)ccc4F)cc23)CC1 [Example 35, 5-(5-{[(2-cyanoethyl)amino]methyl}-2-fluorophenyl)-3-[1-(ethylsulfonyl)-4-piperidinyl]-1H-indole-7-carboxamide trifluoroacetate] | > 1 µM | ≤ 10 µM | – |
| CCS(=O)(=O)N1CCC(c2c[nH]c3c(C(N)=O)cc(-c4csc(CN(C)C(C)c5cccs5)c4)cc23)CC1 (stereo not shown) [Example 81, 3-[1-(ethylsulfonyl)-4-piperidinyl]-5-[5-({methyl[1-(2-thienyl)ethyl]amino}methyl)-3-thienyl]-1H-indole-7-carboxamide trifluoroacetate] | – | ≤ 10 µM | 0 to 60% |
| CCS(=O)(=O)N1CCC(c2c[nH]c3c(C(N)=O)cc(-c4ccc(F)c(CNC5CCC5)c4)cc23)CC1 [Example 275, 5-{3-[(cyclobutylamino)methyl]-4-fluorophenyl}-3-[1-(ethylsulfonyl)-4-piperidinyl]-1H-indole-7-carboxamide trifluoroacetate] | ≤ 1.5 µM | ≤ 10 µM | – |
| CCS(=O)(=O)N1CCC(c2c[nH]c3c(C(N)=O)cc(-c4cccc(CNS(=O)(=O)c5ccc(Cl)cc5)c4)cc23)CC1 [Example 372, 5-[3-({[(4-chlorophenyl)sulfonyl]amino}methyl)phenyl]-3-[1-(ethylsulfonyl)-4-piperidinyl]-1H-indole-7-carboxamide] | ≤ 1.5 µM | ≤ 10 µM | – |
| CCS(=O)(=O)N1CCC(c2c[nH]c3c(C(N)=O)cc(-c4cc(F)cc(CN[C@@H](C)C(C)(C)C)c4)cc23)CC1 [Example 317, 3-[1-(ethylsulfonyl)-4-piperidinyl]-5-[3-fluoro-5-({[(1S)-1,2,2-trimethylpropyl]amino}methyl)phenyl]-1H-indole-7-carboxamide trifluoroacetate] | ≤ 1.5 µM | ≤ 10 µM | – |
| CCS(=O)(=O)N1CCC(c2c[nH]c3c(C(N)=O)cc(-c4csc(CN(C)C(C)C)c4)cc23)CC1 [Example 88, 3-[1-(ethylsulfonyl)-4-piperidinyl]-5-(5-{[methyl(1-methylethyl)amino]methyl}-3-thienyl)-1H-indole-7-carboxamide trifluoroacetate] | ≤ 1.5 µM | ≤ 10 µM | – |
| CCS(=O)(=O)N1CCC(c2c[nH]c3c(C(N)=O)cc(-c4csc(CN(C)CCOC)c4)cc23)CC1 [Example 86, 3-[1-(ethylsulfonyl)-4-piperidinyl]-5-[5-({methyl[2-(methyloxy)ethyl]amino}methyl)-3-thienyl]-1H-indole-7-carboxamide trifluoroacetate] | ≤ 1.5 µM | ≤ 10 µM | – |
| CCS(=O)(=O)N1CCC(c2c[nH]c3c(C(N)=O)cc(-c4cnn(CCNC(C)C)c4)cc23)CC1 [Example 259, 3-[1-(ethylsulfonyl)-4-piperidinyl]-5-(1-{2-[(1-methylethyl)amino]ethyl}-1H-pyrazol-4-yl)-1H-indole-7-carboxamide trifluoroacetate] | > 1 µM | ≤ 10 µM | – |
